TGI and GI50 data for ten compounds are collected here from PubChem BioAssay (NCI).

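Following 48 hours of exposure in 96-well plates, responses at five concentrations were used to interpolate endpoints linearly. GI50 marks 50% less growth. TGI: concentration producing complete growth inhibition.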

Among the test systems are OVCAR-4 ovarian; UACC-62 melanoma; M14 melanoma; HCT-15 colon; SNB-78 CNS; DMS 114 small cell lung; HCT-116 colon; EKVX NSCLC; HCC-2998 colon; LOX IMVI melanoma; K-562 leukemia; MCF7 breast; BT-549 breast.
Experiment in all cases: growth of human tumour cells (NCI), 48 h

`CN1N=C2c3ccccc3CC[C@H]2C1c1ccccc1` (some centres not stated): the TGI with OVCAR-4 ovarian was greater than 100 µM; in the assay with UACC-62 melanoma it was greater than 100 µM; in the assay with M14 melanoma, greater than 100 µM; with HCT-15 colon it was greater than 100 µM; with SNB-78 CNS it was greater than 100 µM; in the assay with DMS 114 small cell lung, 70.8 µM. The TGI in the assay with HCT-116 colon, in the assay with EKVX NSCLC, in the assay on HCC-2998 colon, in the assay on LOX IMVI melanoma and with K-562 leukemia was greater than 100 µM throughout.

For `COC(=O)[C@@H]1c2cc3c(c(O)c2[C@@H](OC)C[C@@]1(C)O)C(=O)c1c(O)cc2c(c1C3=O)OC1O[C@@]2(C)[C@H](O)[C@@H](N(C)C)[C@@H]1O`, the TGI in the assay on MCF7 breast is 6.48 µM; in the assay on OVCAR-4 ovarian it was 1.76 µM; with UACC-62 melanoma, 0.534 µM; with HCT-15 colon it was 2.23 µM; with SNB-78 CNS, 4.54 µM; with DMS 114 small cell lung, 0.633 µM. The TGI in the assay with HCT-116 colon came out at 1.58 µM; with EKVX NSCLC, 1.33 µM; in the assay with HCC-2998 colon it was 1.37 µM; in the assay on K-562 leukemia, 7.31 µM.

Regarding `C=C(C)C1Cc2c(cc(O)c3c(=O)c4ccccc4n(C)c23)O1` (configuration not stated), the TGI in the assay on OVCAR-4 ovarian is 26.7 µM; with M14 melanoma it was 90.4 µM; with HCT-15 colon it was greater than 100 µM; with SNB-78 CNS, greater than 100 µM; in the assay on DMS 114 small cell lung, greater than 100 µM; with HCT-116 colon, greater than 100 µM. Also, the TGI is greater than 100 µM with HCC-2998 colon and 37.2 µM with LOX IMVI melanoma.

In the case of `O=c1ccc2ccccc2o1`, the TGI with OVCAR-4 ovarian, with UACC-62 melanoma, in the assay with M14 melanoma, in the assay with HCT-15 colon, in the assay with SNB-78 CNS and in the assay with DMS 114 small cell lung was greater than 100 µM each time. Further, the TGI in the assay with HCT-116 colon, with EKVX NSCLC, in the assay with HCC-2998 colon, in the assay with LOX IMVI melanoma and in the assay on K-562 leukemia was greater than 100 µM each time.

Consider `[Cl-].[Rh+3].c1ccc(-c2ccnc3c2ccc2c(-c4ccccc4)ccnc23)cc1.c1ccc(-c2ccnc3c2ccc2c(-c4ccccc4)ccnc23)cc1.c1ccc(-c2ccnc3c2ccc2c(-c4ccccc4)ccnc23)cc1`, for which the GI50 in the assay with MCF7 breast is 71.3 µM. The TGI is greater than 100 µM in the assay on MCF7 breast; greater than 100 µM with OVCAR-4 ovarian; greater than 100 µM in the assay with UACC-62 melanoma; greater than 100 µM in the assay with HCT-15 colon; greater than 100 µM with SNB-78 CNS; 75 µM in the assay with DMS 114 small cell lung. Besides, the TGI in the assay with HCT-116 colon was greater than 100 µM; in the assay on EKVX NSCLC, greater than 91.7 µM; with HCC-2998 colon it was 50 µM; in the assay with LOX IMVI melanoma, greater than 100 µM; in the assay on K-562 leukemia it was greater than 78.4 µM.

In the case of `CN(C)CCNCc1c2ccccc2c(CNCCN(C)C)c2ccccc12`, the TGI in the assay with MCF7 breast is 79.8 µM; in the assay with OVCAR-4 ovarian it was 72 µM; in the assay with UACC-62 melanoma it was greater than 61.6 µM; in the assay on HCT-15 colon, greater than 100 µM; with SNB-78 CNS, 98.4 µM; in the assay on DMS 114 small cell lung it was greater than 70.1 µM. Besides, the TGI in the assay with HCT-116 colon was greater than 90.1 µM; in the assay with EKVX NSCLC it was greater than 100 µM; in the assay with HCC-2998 colon, 23.8 µM; in the assay on LOX IMVI melanoma, 38.7 µM; in the assay with K-562 leukemia it was greater than 100 µM.

With `COc1ccc(/C(Cl)=C(\C=O)c2ccc(F)cc2)cc1`, the TGI in the assay with UACC-62 melanoma was 56 µM; with M14 melanoma it was greater than 100 µM; in the assay with HCT-15 colon it was 31.2 µM; in the assay on SNB-78 CNS, 53.1 µM; with DMS 114 small cell lung, 45.1 µM; in the assay with HCT-116 colon, 20 µM. The TGI is greater than 100 µM with EKVX NSCLC, 39.3 µM with LOX IMVI melanoma and greater than 100 µM in the assay on K-562 leukemia.

Regarding `O=C(CSc1nnc(Cc2ccccc2)o1)Nc1ccc(Cl)cc1`, the TGI in the assay with OVCAR-4 ovarian, in the assay with UACC-62 melanoma, with M14 melanoma, with HCT-15 colon, in the assay with SNB-78 CNS and in the assay on DMS 114 small cell lung was greater than 100 µM in each case. Also, the TGI is greater than 100 µM in the assay with HCT-116 colon; 92.4 µM with EKVX NSCLC; greater than 100 µM in the assay on HCC-2998 colon; greater than 100 µM with LOX IMVI melanoma; greater than 100 µM in the assay on K-562 leukemia.

As for `O=[N+]([O-])c1ccc(/C=C/c2ccc(N=Nc3ccc(/C=C/c4ccc([N+](=O)[O-])cc4S(=O)(=O)O)c(S(=O)(=O)O)c3)cc2S(=O)(=O)O)c(S(=O)(=O)O)c1`, the TGI in the assay with MCF7 breast, in the assay with OVCAR-4 ovarian, in the assay on UACC-62 melanoma, in the assay on HCT-15 colon, with SNB-78 CNS and with DMS 114 small cell lung was greater than 100 µM throughout. Besides, the TGI in the assay with HCT-116 colon, in the assay with EKVX NSCLC, with HCC-2998 colon, with LOX IMVI melanoma and with K-562 leukemia was greater than 100 µM throughout.

On to `C[n+]1c2ccccc2c(CNC(CCC(N)=O)C(=O)O)c2ccccc21` (configuration not stated), for which the TGI in the assay with BT-549 breast was 10.1 µM; in the assay on MCF7 breast, 7.73 µM; in the assay with OVCAR-4 ovarian it was 9.24 µM; with UACC-62 melanoma it was 6.19 µM; in the assay on M14 melanoma, 12.2 µM; with HCT-15 colon it was 4.31 µM. Also, the TGI in the assay with SNB-78 CNS was found to be 25.7 µM; with DMS 114 small cell lung it was 2.04 µM; in the assay with HCT-116 colon it was 1.21 µM; with EKVX NSCLC, 12.9 µM; with HCC-2998 colon, 11.2 µM; in the assay with LOX IMVI melanoma, 6.64 µM. The compound further returned a TGI in the assay on K-562 leukemia of 6.51 µM.
